According to the NIST ThermoML archive (doi:10.1016/j.jct.2018.04.015):

Test: mn = molality of the nth substance listed, in mol/kg
Settings: 100 kPa, Liquid; for viscosity: Capillary tube (Ostwald / Ubbelohde) method; for mass density: Vibrating tube method

C[N+](C)(C)CCO.[Cl-] [choline chloride] + O
Settings	mass density, 293.15 K [kg/m3]	mass density, 298.15 K [kg/m3]	mass density, 303.15 K [kg/m3]	mass density, 308.15 K [kg/m3]	mass density, 313.15 K [kg/m3]	viscosity, 293.15 K [mPa·s]	viscosity, 298.15 K [mPa·s]	viscosity, 303.15 K [mPa·s]	viscosity, 308.15 K [mPa·s]	viscosity, 313.15 K [mPa·s]
m1 = 0.08502	999.63	998.44	997.02	995.39	993.55	–	–	–	–	–
m1 = 0.09081	–	–	–	–	–	1.034	0.916	0.819	0.737	0.668
m1 = 0.1494	–	–	–	–	–	1.049	0.929	0.831	0.748	0.678
m1 = 0.15	1000.68	999.47	998.03	996.38	994.52	–	–	–	–	–
m1 = 0.2002	1001.48	1000.25	998.79	997.13	995.25	–	–	–	–	–
m1 = 0.2056	–	–	–	–	–	1.062	0.941	0.841	0.757	0.686
m1 = 0.2501	1002.25	1001	999.53	997.85	995.96	–	–	–	–	–
m1 = 0.2998	–	–	–	–	–	1.082	0.959	0.858	0.772	0.7
m1 = 0.3003	1003.03	1001.75	1000.27	998.57	996.66	–	–	–	–	–
m1 = 0.3503	1003.78	1002.49	1000.99	999.27	997.34	–	–	–	–	–
m1 = 0.3511	–	–	–	–	–	1.093	0.968	0.867	0.78	0.708
m1 = 0.3997	1004.52	1003.22	1001.7	999.95	998	–	–	–	–	–
m1 = 0.4226	–	–	–	–	–	1.107	0.981	0.878	0.791	0.718
m1 = 0.4502	1005.27	1003.94	1002.41	1000.64	998.67	–	–	–	–	–
m1 = 0.489	–	–	–	–	–	1.119	0.993	0.889	0.801	0.728
m1 = 0.499	1005.99	1004.64	1003.08	1001.3	999.3	–	–	–	–	–
